Test results taken from patent US10350220B2, “Methods and materials for reducing suppression of immune function” (Mayo Foundation for Medical Education and Research, priority 2011, dated 2019).

Tested on: CD14+ cells co-cultured with a renal cell tumor line (ACHN)
Assay: HLA-DR expression of isolated CD14+ cells co-cultured with ACHN renal cell tumor line, flow cytometry
Conditions: CD14+ cells exposed to ACHN cancer cells, RU486 5 or 20 μM added day 0; compared with cells exposed to cancer cells and not treated

CC#C[C@]1(O)CC[C@H]2[C@@H]3CCC4=CC(=O)CCC4=C3[C@@H](c3ccc(N(C)C)cc3)C[C@@]21C [RU486, mifepristone]
HLA-DR expression (MFI of HLA-DR staining, FIG. 1): more HLA-DR expression than cells exposed to cancer cells and not treated with RU486
